Test results published in ChEMBL document CHEMBL6103622 (J Med Chem, 2025).
Calls of active or inactive are those of the source. No cut-off for these calls is given here.

Legend:
[1] = target: Macrophage colony-stimulating factor 1 receptor (Homo sapiens, UniProt P07333); test: Inhibition of CSF-1R (unknown origin)
MC-38 [2] = test: Induction of apoptosis in mouse MC38 cells cocultured with condition medium of M2 macrophages assessed as late apoptotic cells at 100 nM by Annexin V/PI staining based flow cytometric analysis (reference value: 1.66 %); assay type: functional
MC-38 [3] = test: Induction of apoptosis in mouse MC38 cells cocultured with condition medium of M2 macrophages assessed as early apoptotic cells at 100 nM by Annexin V/PI staining based flow cytometric analysis (reference value: 3.16 %); assay type: functional
MC-38 [4] = test: Induction of apoptosis in mouse MC38 cells assessed as early apoptotic cells at 100 nM by Annexin V/PI staining based flow cytometric analysis (reference value: 1.91 %); assay type: functional
MC-38 [5] = test: Induction of apoptosis in mouse MC38 cells assessed as late apoptotic cells at 100 nM by Annexin V/PI staining based flow cytometric analysis (reference value: 0.85 %); assay type: functional
[6] = target: T1, Macrophage colony-stimulating factor 1 receptor (Mus musculus) (UniProt P09581); test: Inhibition of CSF-1R signaling pathway activation in female C57BL/6 mouse BMDM cells assessed as reduction in CSF-1R phosphorylation at 100 nM preincubated with compounds for 4 hrs followed by M-CSF stimulation and measured after 30 mins by Western blot analysis; assay type: cell-based; details: time 4.5 hrs
T1 sequence (whole entry): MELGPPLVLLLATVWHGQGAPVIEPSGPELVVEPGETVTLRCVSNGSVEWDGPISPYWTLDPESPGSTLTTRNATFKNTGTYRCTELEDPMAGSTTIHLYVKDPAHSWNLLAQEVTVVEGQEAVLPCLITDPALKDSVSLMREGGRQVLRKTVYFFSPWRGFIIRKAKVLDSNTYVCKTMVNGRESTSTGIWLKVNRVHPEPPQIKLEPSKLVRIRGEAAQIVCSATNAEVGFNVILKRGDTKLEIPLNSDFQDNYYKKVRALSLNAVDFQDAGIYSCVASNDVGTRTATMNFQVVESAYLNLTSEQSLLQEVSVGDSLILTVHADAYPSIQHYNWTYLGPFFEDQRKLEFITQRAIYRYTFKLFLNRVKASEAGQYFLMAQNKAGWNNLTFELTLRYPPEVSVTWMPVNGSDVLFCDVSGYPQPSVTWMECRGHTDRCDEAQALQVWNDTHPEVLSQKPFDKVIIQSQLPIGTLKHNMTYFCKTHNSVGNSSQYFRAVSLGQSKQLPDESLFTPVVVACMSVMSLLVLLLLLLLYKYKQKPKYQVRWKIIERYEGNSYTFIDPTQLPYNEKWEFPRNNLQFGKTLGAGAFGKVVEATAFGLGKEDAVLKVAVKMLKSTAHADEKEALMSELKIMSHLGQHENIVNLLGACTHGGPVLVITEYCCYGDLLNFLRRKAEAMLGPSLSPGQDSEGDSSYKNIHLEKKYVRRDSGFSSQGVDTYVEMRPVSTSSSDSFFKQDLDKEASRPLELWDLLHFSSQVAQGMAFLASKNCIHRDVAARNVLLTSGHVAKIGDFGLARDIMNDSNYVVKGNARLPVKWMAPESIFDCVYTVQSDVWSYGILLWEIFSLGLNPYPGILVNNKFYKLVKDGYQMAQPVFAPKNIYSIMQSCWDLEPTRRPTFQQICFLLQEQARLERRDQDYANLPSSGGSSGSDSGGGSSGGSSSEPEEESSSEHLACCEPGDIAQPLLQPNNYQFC

[7] = target: T1, Macrophage colony-stimulating factor 1 receptor (Mus musculus); test: Inhibition of CSF-1R signaling pathway activation in female C57BL/6 mouse BMDM cells assessed as reduction in CSF-1R phosphorylation at Tyr723 residue at 100 nM preincubated with compounds for 4 hrs followed by M-CSF stimulation and measured after 30 mins by Western blot analysis; assay type: cell-based; details: time 4.5 hrs
[8] = target: T1, Macrophage colony-stimulating factor 1 receptor (Mus musculus); test: Inhibition of CSF-1R signaling pathway activation in female C57BL/6 mouse BMDM cells assessed as reduction in AKT phosphorylation at Ser473 residue at 100 nM preincubated with compounds for 4 hrs followed by M-CSF stimulation and measured after 30 mins by Western blot analysis; assay type: cell-based; details: time 4.5 hrs

Chain of Macrophage colony-stimulating factor 1 receptor (P07333 whole entry): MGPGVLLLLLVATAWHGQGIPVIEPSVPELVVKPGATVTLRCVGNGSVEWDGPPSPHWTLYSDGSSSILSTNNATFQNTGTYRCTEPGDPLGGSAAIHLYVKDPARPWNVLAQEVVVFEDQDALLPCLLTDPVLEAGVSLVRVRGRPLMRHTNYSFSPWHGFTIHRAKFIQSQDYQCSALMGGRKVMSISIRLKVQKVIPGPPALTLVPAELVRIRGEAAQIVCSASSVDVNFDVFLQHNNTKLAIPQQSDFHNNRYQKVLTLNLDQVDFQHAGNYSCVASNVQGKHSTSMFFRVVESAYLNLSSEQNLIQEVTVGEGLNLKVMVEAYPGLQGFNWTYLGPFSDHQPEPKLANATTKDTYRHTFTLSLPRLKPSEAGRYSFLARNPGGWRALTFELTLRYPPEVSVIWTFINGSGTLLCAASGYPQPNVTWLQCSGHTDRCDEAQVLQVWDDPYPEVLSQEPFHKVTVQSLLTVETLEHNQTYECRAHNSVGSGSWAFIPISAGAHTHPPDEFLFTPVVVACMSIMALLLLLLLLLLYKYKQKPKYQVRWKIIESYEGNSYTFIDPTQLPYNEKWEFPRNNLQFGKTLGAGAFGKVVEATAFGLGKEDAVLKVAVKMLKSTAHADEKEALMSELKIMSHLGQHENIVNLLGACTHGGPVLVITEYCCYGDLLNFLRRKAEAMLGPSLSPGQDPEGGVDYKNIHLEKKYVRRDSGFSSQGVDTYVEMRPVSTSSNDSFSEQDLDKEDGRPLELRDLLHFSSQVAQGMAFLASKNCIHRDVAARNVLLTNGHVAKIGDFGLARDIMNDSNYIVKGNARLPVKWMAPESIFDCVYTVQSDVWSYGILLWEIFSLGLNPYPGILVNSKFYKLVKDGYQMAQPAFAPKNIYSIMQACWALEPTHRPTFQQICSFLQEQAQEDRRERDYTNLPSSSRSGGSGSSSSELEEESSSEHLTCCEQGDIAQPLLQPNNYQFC

IC50 [1] | SMILES | also measured
0.0856 µM | Cc1nc(NC(=O)Nc2ccc(F)cc2)ccc1Oc1c[nH]c2ncc(Cl)cc12 | –
0.0489 µM | Cc1nc(NC(=O)Nc2ccc(C(F)(F)F)cc2)ccc1Oc1c[nH]c2ncc(Cl)cc12 | –
> 1 µM | Cc1nc(NC(=O)Nc2ccc(C(C)(C)C)c(Cl)c2)ccc1Oc1c[nH]c2ncc(Cl)cc12 | –
0.372 µM | Cc1nc(NC(=O)Nc2cccc(C(F)(F)F)c2)ccc1Oc1c[nH]c2ncc(Cl)cc12 | –
0.0346 µM | Cc1nc(NC(=O)Nc2cccc(Cl)c2)ccc1Oc1c[nH]c2ncc(Cl)cc12 | inhibition [7]: Active; Minimal Effect Observed; inhibition [8]: Active; Minimal Effect Observed
0.406 µM | Cc1nc(NC(=O)NCc2ccc(C(F)(F)F)nc2)ccc1Oc1c[nH]c2ncc(Cl)cc12 | –
0.152 µM | Cc1nc(NC(=O)Nc2ccc(C(F)(F)F)nc2)ccc1Oc1c[nH]c2ncc(Cl)cc12 | –
> 1 µM | Cc1nc(NC(=O)Nc2cc(C(C)(C)C)no2)ccc1Oc1c[nH]c2ncc(Cl)cc12 | –
0.131 µM | COc1cc(NC(=O)Nc2ccc(Oc3c[nH]c4ncc(Cl)cc34)c(C)n2)ccc1C(F)(F)F | –
0.593 µM | Cc1nc(NC(=O)Nc2ccc(N3CCN(C)CC3)cc2)ccc1Oc1c[nH]c2ncc(Cl)cc12 | –

More lines, now with the values behind:

SMILES | IC50 [1] | also measured
FC(F)(F)c1ccc(CNc2ccc(Cc3c[nH]c4ncc(Cl)cc34)cn2)cn1 [PEXIDARTINIB] | – | Activity (MC-38 [2]): 2.25%; Activity (MC-38 [3]): 8.49%; Activity (MC-38 [4]): 1.8%; Activity (MC-38 [5]): 0.83%
O[C@@H]1CCCC[C@H]1Nc1nc2ccc(Oc3c[nH]c4ncc(F)cc34)cc2s1 | 0.0306 µM | inhibition [6]: Active; Weak Inhibitory Effect Observed
COc1cc(NC(=O)Nc2ccc(Oc3c[nH]c4ncc(Cl)cc34)c(C)n2)cc(OC)c1OC | 0.0238 µM | inhibition [7]: Active; Minimal Effect Observed; inhibition [8]: Active; Minimal Effect Observed
O=C(Nc1ccc(Oc2c[nH]c3ncc(Cl)cc23)cc1)N[C@@H]1CCCC[C@H]1O | 0.0435 µM | –
O[C@@H]1CCCC[C@H]1Nc1nc2ccc(Cc3c[nH]c4ncc(Cl)cc34)cc2s1 | 0.0494 µM | inhibition [6]: Active; Weak Inhibitory Effect Observed
O[C@@H]1CCCC[C@H]1Nc1nc2ccc(Oc3c[nH]c4ncc(Cl)cc34)cc2s1 | 0.0258 µM | inhibition [6]: Active; Weak Inhibitory Effect Observed
O[C@@H]1CCCC[C@H]1Nc1nc2ccc(Oc3c[nH]c4nccc(F)c34)cc2s1 | 0.0414 µM | –
FC(F)(F)c1ccc(Nc2nc3ccc(Oc4c[nH]c5ncc(Cl)cc45)cc3s2)cc1 | 0.0565 µM | –
OC[C@H](Nc1nc2ccc(Oc3c[nH]c4ncc(Cl)cc34)cc2s1)C1CCCCC1 | > 1 µM | –
